The structures appear in SMILES notation.

The first assay has as its target T1, human TRPC5 (Homo sapiens, UniProt Q9UL62).
T1 construct: expressed in transfected cells
T1 sequence (Q9UL62 1-973): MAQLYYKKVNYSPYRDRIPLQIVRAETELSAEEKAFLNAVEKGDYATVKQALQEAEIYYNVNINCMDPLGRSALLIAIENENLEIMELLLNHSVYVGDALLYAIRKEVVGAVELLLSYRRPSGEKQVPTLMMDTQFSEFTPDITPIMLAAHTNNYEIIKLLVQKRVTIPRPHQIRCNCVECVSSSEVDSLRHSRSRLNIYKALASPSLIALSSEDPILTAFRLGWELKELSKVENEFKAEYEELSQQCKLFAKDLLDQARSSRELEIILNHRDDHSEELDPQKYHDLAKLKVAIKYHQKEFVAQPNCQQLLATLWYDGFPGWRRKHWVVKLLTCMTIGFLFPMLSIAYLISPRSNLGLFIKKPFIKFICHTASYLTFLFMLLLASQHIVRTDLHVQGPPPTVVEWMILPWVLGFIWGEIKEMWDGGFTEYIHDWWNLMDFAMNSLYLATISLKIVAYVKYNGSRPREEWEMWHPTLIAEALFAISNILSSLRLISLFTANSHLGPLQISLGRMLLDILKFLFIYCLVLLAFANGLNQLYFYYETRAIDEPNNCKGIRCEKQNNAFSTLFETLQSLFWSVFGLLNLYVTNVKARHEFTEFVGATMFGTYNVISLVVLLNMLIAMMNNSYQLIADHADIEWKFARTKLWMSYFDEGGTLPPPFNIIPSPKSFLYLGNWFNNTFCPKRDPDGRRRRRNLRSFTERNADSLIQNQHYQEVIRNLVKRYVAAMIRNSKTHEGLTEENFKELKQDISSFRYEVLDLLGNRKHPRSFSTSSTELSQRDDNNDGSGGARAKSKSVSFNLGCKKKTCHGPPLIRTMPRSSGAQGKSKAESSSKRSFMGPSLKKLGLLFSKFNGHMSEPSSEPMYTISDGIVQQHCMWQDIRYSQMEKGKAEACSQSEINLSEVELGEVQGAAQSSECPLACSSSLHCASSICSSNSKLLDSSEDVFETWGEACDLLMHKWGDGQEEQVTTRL
Description: Automated patch clamp assay (QPatch), antagonist mode. The assay is classed as cell-based. Particulars: HEK-TREx hTRPC5 cells; channel activated with Rosiglitazone 30 μM; normalised to ML-204 block; read-out: Qpatch Potency Range. The procedure:
(§1) ICLN-1633 cells (HEK-TREx hTRPC5) expressing TRPC5 were generated as follows. Commercially available HekTrex-293 cells were seeded at 0.7×10^6 cells/well in a 1×6-well plate 24 hrs prior to transfection using 2 mL cell growth media containing no antibiotics (1× DMEM/high glucose (Hyclone #SH30022.02); 10% fetal bovine serum (Sigma) 2 mM sodium pyruvate, 10 mM HEPES). The human TRPC5 coding sequence (NM_012471 with a silent T478C mutation) was cloned into pcDNA5/TO (Invitrogen; Cat No. V103320) using hygromycin as the resistance gene and the plasmid (SEQ ID NO:1) propagated using T-Rex-293 cells (Invitrogen; Cat No. R71007) following manufacturer's directions. On day 2, 2 μg of plasmid DNA plus 6 μl of Xtreme-GENE HP reagent in Optimem (200 μl total volume) was prepared and incubated for 15 min at room temperature. This plasmid solution was then gently overlayed dropwise onto each well and the plate was gently swirled to mix complex with the media for approximately 30 seconds. Transfected cells were incubated at 37° C. in a 10% CO2 incubator for 24 hrs. The transfected cells were harvested and transferred into 2×150 mm dishes containing cell growth media with no antibiotics at 37° C.
The next day selection was initiated to generate a stable pool by adding cell growth media containing 150 μg/mL Hygromycin and 5 μg/mL Blasticidin and cells were allowed to grow. Media with the selection agent was changed every 1-2 days as needed to remove dead cells. After 7 days, the hygromycin concentration was reduced to 75 μg/mL and cells growth was allowed to continue.
Single clones were selected as follows. The stable pool was diluted to 10 cells/mL and seeded (100 μl/well) into 24×96 well plates (˜1 cell/well) and allowed to grow for 7 days in cell growth media. Fresh media (100 μl) was added and the cells allowed to grow for another 1-2 weeks and then stored frozen or used immediately.
The automated electrophysiological assay was carried out at room temperature. On the day of the experiment, TRPC5 cells were cultured according to our Standard Operating Procedure. Briefly, cells were harvested using TrypLE™ Express, re-suspended in serum free medium, added to the automated platform and used within 0.5-3 hours. Internal and external physiological solutions were freshly prepared prior to the assay. The external solution contained: 145 mM NaCl, 4 mM KCl, 2 mM CaCl2, 1 mM MgCl2, 10 mM HEPES, 10 mM glucose, pH 7.4 with NaOH and 310 mOsm/L. The internal solution contained 120 mM L-aspartic acid, 120 mM CsOH·H2O, 20 mM CsCl, 2 mM MgCl2, 8.8 mM CaCl2, 10 mM EGTA, 10 mM HEPES and 2 mM Na2ATP; pH 7.2 with CsOH and 330 mOsm/L. The free internal Ca^2+ concentration was buffered to 1 μM, according to the WCabuf software. The automated electrophysiological platform QPatch 16 from Sophion (Denmark) was used to carry out the compounds profiling. The series resistance and quality of seals were continuously monitored during the experiments. Data were analyzed using Sophion QPatch assay software 5.6 (Odense). Data were normalized using the maximum activation obtained during the pre-compound agonist application as the top value (1.0) and maximum inhibition induced by ML-204 as the bottom value (0.0). IC50 values were calculated using a least squares regression algorithm (Hill equation).
To monitor the ion currents, a voltage ramp from −100 mV to +100 mV, over 300 ms, was applied every 10 seconds, from a holding potential of −60 mV. Antagonist-mode: After recording for a minimum of 60 seconds control period, the EC60 concentration of the TRPC5 agonist, Rosiglitazone (30 μM), was applied to activate the channel. After reaching steady-state, co-application of increasing concentrations of test compound were applied followed by two applications of Rosiglitazone EC60 and a saturating concentration of the specific blocker ML-204 (100 μM).
In general terms: In patch-clamp work, channel activity is measured electrically.
`CN1CCN(CCCO)C(=O)c2c1nc(Oc1cccc(OC(F)(F)F)c1)n2Cc1ccc(Cl)cc1` [Compound 1, 1-[(4-chlorophenyl)methyl]-7-(3-hydroxypropyl)-4-methyl-2-[3-(trifluoromethoxy)phenoxy]-1H,4H,5H,6H,7H,8H-imidazo[4,5-e][1,4]diazepin-8-one]: the IC50 lay in the range of 1 to 30 µM.
On to `CN1C(=O)[C@H](CCO)N(C)C(=O)c2c1nc(Oc1cccc(OC(F)(F)F)c1)n2Cc1ccc(Cl)cc1` (single isomer, unassigned) [Compound 17], for which the IC50 is over 30 µM.
With `C[C@@H](c1ccc(Cl)cc1)n1c(Oc2cccc(F)c2)nc2c1C(=O)N(CCCO)CC(=O)N2C` (single isomer, unassigned) [Compound 7], the IC50 fell in the range of 1 to 30 µM.
The same measure, in the same setting: for `CCCCn1c(Oc2cccc(F)c2)nc2c1C(=O)N(CCCO)C(=O)[C@@H]1CCCN21` (single isomer, unassigned) [Compound 24] the value was 0.001 to 1 µM; for `CN1C(=O)[C@@H](CCO)N(C)C(=O)c2c1nc(Oc1cccc(OC(F)(F)F)c1)n2Cc1ccc(Cl)cc1` (single isomer, unassigned) [Compound 18], 0.001 to 1 µM; for `CN1C(=O)CN([C@H]2C[C@H](O)C2)C(=O)c2c1nc(Oc1cccc(OC(F)(F)F)c1)n2Cc1ccc(Cl)cc1` [Compound 13], 1 to 30 µM.
Same read-out and setting: for `CN1C(=O)CN(CC(O)CO)C(=O)c2c1nc(Oc1cccc(OC(F)(F)F)c1)n2Cc1ccc(Cl)cc1` (stereo not drawn) [Compound 9, 1-[(4-chlorophenyl)methyl]-7-(2,3-dihydroxypropyl)-4-methyl-2-[3-(trifluoromethoxy)phenoxy]-1H,4H,5H,6H,7H,8H-imidazo[4,5-e][1,4]diazepine-5,8-dione] the value was 1 to 30 µM.

The target in another assay is T1, human TRPC5. The assay can be described thus: FLIPR calcium assay, inhibition of riluzole-activated TRPC5 calcium response. It is filed as cell-based. As to conditions: ICLN-1633 cells; riluzole 30 μM stimulation; Fluo-4 calcium response; read-out: Inhibitor Potency Range (FLIPR). The protocol:
as §1
Compounds were made up to, or supplied as a 10 mM stock solution generally using DMSO as the vehicle. 10-point dose response curves were generated using the Echo-550 acoustic dispenser. Compound source plates were made by serially diluting compound stocks to create 10 mM, 1 mM, and 0.1 mM solutions in DMSO into Echo certified LDV plates. The Echo then serially spotted 100% DMSO stock solutions into source dose response plates to generate a 4-fold dilution scheme. 100% DMSO was added to the spotted dose response plates to bring the final volume to 5 μl. 300 nl of the dose response stock plate was then spotted into pre-incubation and stimulation assay plates. 50 μl of pre-incubation buffer and 100 μl of stimulation buffer was then added to the plates resulting in a final assay test concentration range of 30 μM to 0.0001 μM with a final DMSO concentration of 0.3%.
Human ICLN-1633 cells expressing were plated onto 384 well, black poly-D-lysine-coated microplates and maintained in TRPC5 growth media the day prior to use for experiments. TRPC5 expression was induced by the application of 1 μg/mL tetracycline at the time of plating. Media was removed from the plates and 10 μl of 4 μM of Fluo-4 AM (mixed with equal volume of Pluronic F-127) in Earls's Balanced Salt Solution (EBSS) was added to the cells. Cells were incubated at room temperature, protected from light, for 60-90 minutes. After the incubation period, the dye was removed and replaced with 10 μl of EBSS. Cell, pre-incubation and stimulation plates were loaded onto the FLIPR-II and the assay was initiated. The FLIPR measured a 10 second baseline and then added 10 μl of 2× compounds (or controls). Changes in fluorescence were monitored for an additional 5 minutes. After the 5 minute pre-incubation, 20 μl of 2× riluzole (with 1× compound or controls) was added to the cell plate. The final riluzole stimulation concentration in the assay was 30 μM. After the riluzole addition, changes in fluorescence were monitored for an additional 5 minutes. Reduction in the riluzole-activated calcium response relative to control wells was reported as inhibition. A compound-mediated increase in the riluzole response relative to control riluzole response (no test agent present) with no enhancement of calcium entry during preincubation phase was reported as an agonist response.
Compound inhibition of TRPC5 calcium response was determined as follows. After the riluzole addition, fluorescence was monitored for a 5-minute period. For inhibition, the maximum relative fluorescence response (minus the control response of 1 μM of an internal control compound known to maximally block TRPC5 calcium response, the “REF INHIB” in the formula below) was captured and exported from the FLIPR. […]
On to `O=C1c2c(nc(Oc3cccc(OC(F)(F)F)c3)n2Cc2ccc(Cl)cc2)N2CCC[C@@H]2CN1CCCO` (single isomer, unassigned) [Compound 34], for which the IC50 was 0.001 to 1 µM.
Still for that read-out and setting: for `CN1C(=O)CN(CCCO)C(=O)c2c1nc(Oc1cccc(F)c1)n2Cc1ccc(Cl)cc1` [Compound 4] the value was 1 to 10 µM; for `CCCCn1c(Oc2cccc(OC(F)(F)F)c2)nc2c1C(=O)N(CCCO)CC(=O)N2C` [Compound 3], 1 to 10 µM.
Consider `C[C@@H](c1ccc(Cl)cc1)n1c(Oc2cccc(F)c2)nc2c1C(=O)N(CCCO)CC(=O)N2C` (single isomer, unassigned) [Compound 7], for which the IC50 was over 10 µM.
Still for that read-out and setting: to `CCCCn1c(Oc2cccc(F)c2)nc2c1C(=O)N(CCCO)C(=O)[C@@H]1CCCN21` (single isomer, unassigned) [Compound 24] belongs 0.001 to 1 µM.
Regarding `CN1C(=O)CN([C@@H]2CC[C@@H](O)C2)C(=O)c2c1nc(Oc1cccc(OC(F)(F)F)c1)n2Cc1ccc(Cl)cc1` (single isomer, unassigned) [Compound 15], the IC50 lay in the range of 0.001 to 1 µM.
Take `CN1C(=O)[C@@H](CCO)N(C)C(=O)c2c1nc(Oc1cccc(OC(F)(F)F)c1)n2Cc1ccc(Cl)cc1` (single isomer, unassigned) [Compound 18]: the IC50 is over 10 µM.
As to `O=C1c2c(nc(Oc3cccc(Cl)c3)n2Cc2ccc(Cl)cc2)N2CCC[C@H]2C(=O)N1CCCO` [Compound 33], the IC50 was 0.001 to 1 µM.
`CN1C(=O)CN([C@H]2CC[C@H](O)C2)C(=O)c2c1nc(Oc1cccc(OC(F)(F)F)c1)n2Cc1ccc(Cl)cc1` (single isomer, unassigned) [Compound 16]: the IC50 lay within 1 to 10 µM.
With `CN1C(=O)CN(CCO)C(=O)c2c1nc(Oc1cccc(OC(F)(F)F)c1)n2Cc1ccc(Cl)cc1` [Compound 10, 1-[(4-chlorophenyl)methyl]-7-(2-hydroxyethyl)-4-methyl-2-[3-(trifluoromethoxy)phenoxy]-1H,4H,5H,6H,7H,8H-imidazo[4,5-e][1,4]diazepine-5,8-dione], the IC50 lay in the range of 1 to 10 µM.
For the compound `O=C1c2c(nc(Oc3cccc(OC(F)(F)F)c3)n2Cc2ccc(Cl)cc2)N2CCC[C@H]2CN1CCCO` (single isomer, unassigned) [Compound 35], the IC50 lay within 1 to 10 µM.
Still for that read-out and setting: to `COCCCN1CC(=O)N(C)c2nc(Oc3cccc(OC(F)(F)F)c3)n(Cc3ccc(Cl)cc3)c2C1=O` [Compound 8, 1-[(4-chlorophenyl)methyl]-7-(3-methoxypropyl)-4-methyl-2-[3-(trifluoromethoxy)phenoxy]-1H,4H,5H,6H,7H,8H-imidazo[4,5-e][1,4]diazepine-5,8-dione] belongs 1 to 10 µM.
On to `O=C1c2c(nc(Oc3cccc(F)c3)n2Cc2ccc(Cl)cc2)N2CCC[C@H]2C(=O)N1CCCO` [Compound 26], for which the IC50 is 0.001 to 1 µM.
Regarding `CCCCn1c(Oc2cccc(Cl)c2)nc2c1C(=O)N(CCCO)C(=O)[C@@H]1CCCN21` [Compound 32], the IC50 lay in the range of 0.001 to 1 µM.

Source of the values: patent US12466834B2, “Imidazodiazepinediones and methods of use thereof” (GFB (ABC), LLC, priority 2018, dated 2025).
